Measurements published in ChEMBL document CHEMBL5143564, “PES derivative PESA is a potent tool to globally profile cellular targets of PES” (Bioorg Med Chem Lett, 2022).
Active and inactive are the calls of the source. No cut-off for these calls is given here.

How the values were obtained:
[1] = molecular target: Coronin-1A (Homo sapiens) (UniProt P31146); experiment: Binding affinity to coronin-1A in human MDA-MB-453 cells measured after 6 hrs by pull-down assay; format: cell-based; conditions: dose <= 20.0 µM, DDE = dose-dependent effect
[2] = molecular target: T1, D-3-phosphoglycerate dehydrogenase (Homo sapiens) (UniProt O43175); experiment: Binding affinity to D-3-phosphoglycerate dehydrogenase in human MDA-MB-453 cells measured after 6 hrs by pull-down assay; format: cell-based; conditions: dose <= 20.0 µM, DDE = dose-dependent effect
T1 sequence (whole entry): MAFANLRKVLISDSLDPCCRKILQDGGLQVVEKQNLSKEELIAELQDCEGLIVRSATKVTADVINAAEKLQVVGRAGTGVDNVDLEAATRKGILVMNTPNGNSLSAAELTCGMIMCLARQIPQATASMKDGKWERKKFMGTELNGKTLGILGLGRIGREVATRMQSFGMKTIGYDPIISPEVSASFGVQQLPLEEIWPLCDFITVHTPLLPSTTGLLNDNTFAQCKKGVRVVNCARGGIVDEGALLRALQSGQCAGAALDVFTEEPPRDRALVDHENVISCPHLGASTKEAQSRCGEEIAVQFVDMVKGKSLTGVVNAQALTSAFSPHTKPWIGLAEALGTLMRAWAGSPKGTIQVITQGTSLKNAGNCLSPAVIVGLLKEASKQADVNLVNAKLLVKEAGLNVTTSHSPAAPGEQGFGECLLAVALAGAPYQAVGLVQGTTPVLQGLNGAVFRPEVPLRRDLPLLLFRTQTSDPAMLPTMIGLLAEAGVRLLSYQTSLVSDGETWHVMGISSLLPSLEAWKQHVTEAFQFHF

[3] = GSH reactivity in pH 7.4 buffer assessed as GSH adduct formation by measuring molecular weight at 1 mM by Q-TOF LC/MS analysis; format: physicochemical; conditions: pH 7.4, 1000 µM
[4] = species: Homo sapiens; experiment: Binding affinity to ADP-bound full-length human HSP70 assessed as Cys603 adduct formation at SBDalpha domain by LC-MS/MS analysis
[5] = species: Homo sapiens; experiment: Binding affinity to ADP-bound full-length human HSP70 by TAMRA-azide based fluorescence imaging analysis; conditions: dose 0.2-20 µM, DDE = dose-dependent effect
[6] = molecular target: T1, D-3-phosphoglycerate dehydrogenase (Homo sapiens); experiment: Binding affinity to D-3-phosphoglycerate dehydrogenase in human DOHH-2 cells measured after 6 hrs by pull-down assay; format: cell-based; conditions: DDE = dose-dependent effect
[7] = molecular target: T2, Protein disulfide-isomerase A6 (Homo sapiens) (UniProt Q15084); experiment: Binding affinity to PDIA6 in human DOHH-2 cells measured after 6 hrs by pull-down assay; format: cell-based; conditions: DDE = dose-dependent effect
T2 sequence (whole entry): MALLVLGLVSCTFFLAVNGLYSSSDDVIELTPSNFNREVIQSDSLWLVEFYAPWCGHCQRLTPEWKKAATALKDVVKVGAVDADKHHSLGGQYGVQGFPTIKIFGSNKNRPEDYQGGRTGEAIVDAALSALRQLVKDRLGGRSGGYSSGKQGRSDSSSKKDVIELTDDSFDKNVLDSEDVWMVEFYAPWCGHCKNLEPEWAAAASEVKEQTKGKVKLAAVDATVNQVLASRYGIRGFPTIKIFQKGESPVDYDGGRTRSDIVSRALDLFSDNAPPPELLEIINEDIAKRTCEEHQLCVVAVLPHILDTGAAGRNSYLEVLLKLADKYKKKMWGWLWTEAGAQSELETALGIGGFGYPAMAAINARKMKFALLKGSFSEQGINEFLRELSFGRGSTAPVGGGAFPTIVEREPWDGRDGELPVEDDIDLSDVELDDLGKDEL

[8] = molecular target: T3, Glutathione S-transferase omega-1 (Homo sapiens) (UniProt P78417); experiment: Binding affinity to GSTO1 in human DOHH-2 cells measured after 6 hrs by pull-down assay; format: cell-based; conditions: DDE = dose-dependent effect
T3 sequence (whole entry): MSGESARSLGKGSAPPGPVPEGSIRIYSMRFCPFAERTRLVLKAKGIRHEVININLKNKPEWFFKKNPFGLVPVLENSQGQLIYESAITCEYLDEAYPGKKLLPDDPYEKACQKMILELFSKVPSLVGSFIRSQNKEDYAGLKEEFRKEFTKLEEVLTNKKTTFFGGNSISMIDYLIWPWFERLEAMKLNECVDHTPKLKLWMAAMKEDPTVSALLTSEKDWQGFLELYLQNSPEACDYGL

[9] = molecular target: Glutathione S-transferase 3, mitochondrial (Homo sapiens) (UniProt O14880); experiment: Binding affinity to MGST3 in human DOHH-2 cells measured after 6 hrs by pull-down assay; format: cell-based; conditions: DDE = dose-dependent effect
[10] = molecular target: T4, Thioredoxin-dependent peroxide reductase, mitochondrial (Homo sapiens) (UniProt P30048); experiment: Binding affinity to PRDX3 in human MDA-MB-453 cells measured after 6 hrs by pull-down assay; format: cell-based; conditions: dose <= 20.0 µM, DDE = dose-dependent effect
T4 sequence (whole entry): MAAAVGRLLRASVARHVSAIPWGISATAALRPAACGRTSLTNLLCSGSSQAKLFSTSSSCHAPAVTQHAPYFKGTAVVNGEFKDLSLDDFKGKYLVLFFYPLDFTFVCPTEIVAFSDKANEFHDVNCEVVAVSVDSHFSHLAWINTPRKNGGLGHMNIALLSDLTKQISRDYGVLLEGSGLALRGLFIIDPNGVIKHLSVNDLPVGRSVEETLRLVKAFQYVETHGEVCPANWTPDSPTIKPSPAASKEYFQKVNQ

[11] = molecular target: T5, Peroxiredoxin-6 (Homo sapiens) (UniProt P30041); experiment: Binding affinity to PRDX6 in human DOHH-2 cells by MS analysis; format: cell-based
T5 sequence (whole entry): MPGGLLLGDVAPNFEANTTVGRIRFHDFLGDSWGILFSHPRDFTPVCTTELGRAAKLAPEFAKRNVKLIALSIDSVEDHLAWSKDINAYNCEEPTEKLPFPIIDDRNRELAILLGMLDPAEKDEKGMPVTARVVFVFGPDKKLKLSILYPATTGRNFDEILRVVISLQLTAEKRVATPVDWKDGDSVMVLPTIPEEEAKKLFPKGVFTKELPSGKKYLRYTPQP

[12] = molecular target: T6, Protein disulfide-isomerase A3 (Homo sapiens) (UniProt P30101); experiment: Binding affinity to PDIA3 in human DOHH-2 cells by MS analysis; format: cell-based
T6 sequence (whole entry): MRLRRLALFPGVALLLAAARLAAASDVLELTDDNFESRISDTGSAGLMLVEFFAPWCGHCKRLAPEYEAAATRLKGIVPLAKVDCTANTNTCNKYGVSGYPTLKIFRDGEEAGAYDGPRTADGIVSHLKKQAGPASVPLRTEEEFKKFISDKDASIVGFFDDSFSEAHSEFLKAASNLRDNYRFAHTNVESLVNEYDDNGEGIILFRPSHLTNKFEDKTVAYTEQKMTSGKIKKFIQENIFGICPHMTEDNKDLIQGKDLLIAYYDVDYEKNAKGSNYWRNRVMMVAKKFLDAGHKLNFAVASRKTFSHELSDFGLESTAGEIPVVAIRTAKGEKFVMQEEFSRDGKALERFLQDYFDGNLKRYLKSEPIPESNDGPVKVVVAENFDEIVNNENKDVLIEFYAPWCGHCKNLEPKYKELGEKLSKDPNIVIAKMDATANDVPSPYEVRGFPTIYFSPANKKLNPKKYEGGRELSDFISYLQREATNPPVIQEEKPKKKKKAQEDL

[13] = molecular target: Glutathione S-transferase 3, mitochondrial (Homo sapiens) (UniProt O14880); experiment: Binding affinity to MGST3 in human DOHH-2 cells by MS analysis; format: cell-based

Chain of Glutathione S-transferase 3, mitochondrial (Homo sapiens) (O14880 whole entry): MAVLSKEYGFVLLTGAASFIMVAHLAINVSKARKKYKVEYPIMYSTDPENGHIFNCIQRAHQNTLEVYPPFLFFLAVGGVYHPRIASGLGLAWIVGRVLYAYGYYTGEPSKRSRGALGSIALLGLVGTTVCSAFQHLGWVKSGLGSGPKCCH
Chain of Coronin-1A (Homo sapiens) (P31146 whole entry): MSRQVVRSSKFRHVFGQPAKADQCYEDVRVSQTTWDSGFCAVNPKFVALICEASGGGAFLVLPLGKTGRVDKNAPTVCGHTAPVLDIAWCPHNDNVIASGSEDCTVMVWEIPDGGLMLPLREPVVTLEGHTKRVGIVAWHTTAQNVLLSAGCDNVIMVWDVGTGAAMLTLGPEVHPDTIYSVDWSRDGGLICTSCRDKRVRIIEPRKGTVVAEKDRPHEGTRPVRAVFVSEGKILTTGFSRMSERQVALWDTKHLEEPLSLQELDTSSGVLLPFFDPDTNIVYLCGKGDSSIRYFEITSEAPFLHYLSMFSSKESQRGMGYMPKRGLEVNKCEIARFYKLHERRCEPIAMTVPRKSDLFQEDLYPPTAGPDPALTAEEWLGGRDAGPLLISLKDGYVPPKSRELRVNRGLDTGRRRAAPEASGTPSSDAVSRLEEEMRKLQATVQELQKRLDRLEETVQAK

Activity [1]: Dde | Activity [2]: Dde | Activity [3]: 513 Da | Activity [4]: Active | Activity [5]: Dde | Activity [6]: Dde | Activity [7]: Dde | Activity [8]: Dde | Activity [9]: Dde | Activity [10]: Dde | Activity [11]: Active | Activity [12]: Active | Activity [13]: Active
SMILES: C#Cc1cccc(C#CS(N)(=O)=O)c1
